Test results published in PubChem BioAssay AID540270 (Broad Institute, 2011).
The source made the active and inactive calls. No rule for the calls is given here.

Biological target: Heat shock protein HSP 90-alpha (Homo sapiens) (UniProt P07900)
Experiment: growth inhibition of yeast carrying human Hsp90, dose response, counter-screen, plate reader, cherry-picked samples (AID 540270)
Details: yeast expressing human Hsp90, growth

Row | Compound | activity, negative = inhibition (at 26 µM (top of the series)) | also measured
1 | NC(=O)/C=C\C(=O)Nc1cccc(C(F)(F)F)c1 | inactive | 
2 | CC1(C)N=C(SCC(=O)Nc2ccc(Cl)cc2Cl)C(c2ccccc2)=N1 | inactive | 
3 | Cc1ccc(O)c(NC(=S)NC(=O)c2ccc(-c3ccc(Cl)cc3)o2)c1 | inactive | 
4 | Cc1ccc(OCc2n[nH]c(=S)n2C2CCCCC2)cc1 | inactive | 
5 | O=C(/C(=C/c1cccc(Cl)c1)c1nc2ccccc2[nH]1)c1ccccc1 | inactive | 
6 | O=C(O)/C=C/c1cn(-c2ccccc2)nc1-c1cc2ccccc2o1 | inactive | 
7 | O=C(O)c1cccc(N/N=C/c2cc(Br)cc(Br)c2O)c1 | inactive | 
8 | CCOc1cc(S(=O)(=O)NC2CCCCCC2)ccc1F | inactive | 
9 | Cc1ccc(/C=C2/NC(=O)N(Cc3ccc(Br)cc3)C2=O)o1 | inactive | 
10 | O=C1S/C(=C/c2ccc(N3CCOCC3)o2)C(=O)N1Cc1c(F)cccc1Cl | inactive | 
11 | Cc1ccc(N=c2ssnc2Cl)cc1 | inactive | 
12 | CCCC1CCC(c2ccc(/C(N)=N/O)cc2)CC1 (centres undefined) | inactive | 
13 | O=C(COc1ccc(Cl)cc1)NC1=NN(c2ccccc2)C(=O)C1 | inactive | 
14 | COc1ccc(C(=O)Nc2cc(C(=O)c3ccccc3)c(C)oc2=O)cc1 | inactive | 
15 | CN(C)c1ccc(-c2cc(O)c3ncccc3c2)cc1 | inactive | 
16 | C[CH2][Hg][S]c1ccccc1C(=O)O |  | AC50: 2.31 µM
17 | Cc1ccc(-c2cc(-c3ccc(F)cc3)c(C#N)c(N)n2)o1 | inactive | 

Row | Compound | activity, negative = inhibition (at 26 µM (top of the series)) | also measured
18 | COc1cc(N=c2ssnc2Cl)c(OC)cc1Cl | inactive | 
19 | CC(C)OC(=O)c1ccc(NCc2cc(O)ccc2O)cc1Cl | inactive | 
20 | Cc1ccc(N2C(=O)C3C4C=CC(CNC(=S)Nc5cccc(Cl)c5)(O4)C3C2=O)cc1 (centres undefined) | inactive | 
21 | Cc1ccc(N2C(=O)C3C4C=CC(CNC(=S)Nc5ccc(F)cc5)(O4)C3C2=O)cc1 (centres undefined) | inactive | 
22 | O=C(/C(=C/c1ccc(Cl)cc1)c1nc2ccccc2[nH]1)c1ccccc1 | inactive | 
23 | O=C(CSCC(=O)N1CCCCC1)Nc1nc(-c2ccc(Cl)s2)cs1 | inactive | 
24 | O=C(/C(=C\c1ccccc1)c1nc2ccccc2[nH]1)c1ccc(Cl)cc1 |  | activity, negative = inhibition (at 12 µM (top of the series)): inactive
25 | O=C1/C(=C\c2ccc(Cl)cc2)CCC1CNc1ccc(Cl)cc1 (centres undefined) | inactive | 
26 | CCN(CC)c1ccc(/C=C2/SC(=O)N(C(C)C)C2=O)o1 |  | activity, negative = inhibition (at 12 µM (top of the series)): inactive
27 | Cc1csc(CNc2ncnc3ccc(-c4cccc(Cl)c4)cc23)c1 | inactive | 
28 | Cc1cc(Br)c2c(c1)/C(=C/C(=O)c1cccs1)C(=O)N2 | inactive | 
29 | COc1ccc(NC(=S)Nc2ccc3snnc3c2)cc1 | inactive | 
30 | CCOC(=O)c1cc([N+](=O)[O-])cc([N+](=O)[O-])c1Sc1ncnc2nc[nH]c12 | inactive | 
31 | O=C1CC(c2ccccc2)CC(O)=C1C=Nc1cccc(Cl)c1 (centres undefined) |  | AC50: 4.28 µM
32 | CC(=NNC(=S)N1CC2CCC(CC2)C1)c1nccs1 | inactive | 
33 | O=C1C=CC(=O)N1Cc1ccccc1 | inactive | 
34 | CCOc1ccc(S(=O)(=O)NCc2ccccn2)c(C)c1C | inactive | 
